Entries after “also recorded” stand apart in the source; their conditions may differ. Read-outs that look alike come from different tables or passages of the source.
What was measured:
[1] = Pharmacokinetic profile of fingolimod in plasma and spinal cord of SOD1 mice; type: in vivo; details: G93A-SOD1 transgenic, mouse, male SOD1 mice, single IP bolus 6.7 mg/kg
Experimental: FIG. 1A is a chart showing the plasma pharmacokinetic profile for fingolimod in male SOD1 mice after a single IP bolus 6.7 mg/kg.
FIG. 1B is a chart showing the spinal cord pharmacokinetic profile for fingolimod in male SOD1 mice after a single IP bolus 6.7 mg/kg.
The pharmacokinetic study provided reagent distribution and elimination parameters in order to guide future in vivo studies. […] Because of the longer than usual half-life of fingolimod, the time points for PK harvest extended beyond the typical 9 point small molecule PK study executed at ALS Therapy Development Institute (ALSTDI, Cambridge, Mass.). Time points included 0, 0.083 hours, 0.25 hours, 0.5 hours, 0.75 hours, 1 hour, 2 hours, 4 hours, 6 hours, 8 hours, 12 hours, 24 hours, 48 hours, 72 hours, and 96 hours.
G93A-SOD1 transgenic mice (shortened to “SOD1 mice”) are mutant for superoxide dismutase 1 (SOD1) and are used as a disease model because of the phenotypic and pathologic resemblance to sporadic and familial human ALS. The SOD1 mice overexpress the superoxide dismutase, CCS, to develop an accelerated disease course that is associated with enhanced mitochondrial pathology and increased mitochondrial localization of mutant SOD1. The results of the fingolimod concentration studies were consistent with published reports for fingolimod in other tissues and models. Tissues analyzed included plasma (FIG. 1A) and spinal cord (FIG. 1B). Fingolimod treated animals were then divided into two groups using two separate doping regimens: • Low Dose Fingolimod Group: IP Load 0.44 mg/kg, Maintenance 0.32 mg/kg every 7 days (q7d), and • High Dose Fingolimod Group: IP Load 2.5 mg/kg, Maintenance 1.8 mg/kg q7d.

[2] = system: experimental autoimmune neuritis; details: Zhang et al. 2008, cited from earlier work
[3] = system: lymphocytes in peritoneal lavage fluid; test: Lymphocyte cell counts in peritoneal lavage fluid by FACS; type: in vivo, mouse; details: vs untreated SOD1
Experimental: FIG. 4 is a graph showing cell counts in peritoneal lavage fluid. SOD1 animals received a loading dose of 2.5 mg/kg fingolimod orally, then oral 1.8 mg/kg once weekly for 3 weeks. Lymphocyte counts were measured via FACS for various cell surface antigens in the peritoneal lavage fluid.
SOD1 mice received a loading dose of 2.5 mg/kg fingolimod orally, then oral 1.8 mg/kg once weekly for 3 weeks. After sacrifice, several measurements were performed. To determine the lymphocyte cell count in peritoneal lavage fluid, peritoneal lavage fluid was removed after sacrifice of the animals and the peritoneal lavage fluid was subjected to fluorescent activated cell sorting for each of the cell surface antigens: CD11b, CD28, CD3, CD4, CD86, […], and LY6G. Lymphocyte cell count from SOD1 fingolimod treated mice was compared to untreated SOD1 mice in FIG. 4.

[4] = system: CD45R positive cells; test: Circulating CD45R positive cells in whole blood of SOD1 mice; type: in vivo, mouse; details: SOD1 animals, high and low dose groups
Experimental: (§1) The following dosage regimen was used to determine the dose dependent effects of fingolimod in SOD1 mice: • Cohorts: • 1) SOD1 Fingolimod Treated “High Dose” (Load 2.5 mg/kg, 1.8 mg/kg Oral q7d) • 4 hour post final dose harvest • 7 day post final dose harvest • 2) SOD1 Fingolimod Treated “Low Dose” (Load 0.44 mg/kg, 0.32 mg/kg Oral q7d) • 4 hour post final dose harvest • 7 day post final dose harvest • 3) SOD1 Vehicle Control • 4 hour post final dose harvest • 7 day post final dose harvest
(§2) The predicted plasma fingolimod load for both the high dose and the low dose regimes were determined, see FIGS. 2A and 2B. Tissues were harvested 4 hours after the third fingolimod dose. This time point was selected to best characterize the behavior of lymphocytes in animals treated with fingolimod when circulating levels of the drug are near peak concentration.

[5] = system: lymphocytes, dendritic cells, regulatory T cells; details: cited from earlier work
[6] = system: CD4+ lymphocytes; test: FACS analysis of circulating CD4+ lymphocytes in whole blood of SOD1 mice; type: in vivo, mouse; details: for CD4+ cells in whole blood: 4 hours after third dose, control approximately 12%
Experimental: FIG. 3B is a FACS analysis showing the reduction of CD4+ lymphocytes in the circulation of male SOD1 mice that received fingolimod treatment. Dosing of fingolimod and time points were the same as in FIG. 3A.
as §1, §2

[7] = whole blood, vs vehicle control

With `CCCCCCCCc1ccc(CCC(N)(CO)CO)cc1` [fingolimod, 2-amino-2-(4-octylphenethyl)propane-1,3-diol] the Cmax ([1]; plasma, read-out: plasma Cmax) was 185 ng/mL, the half-life ([1]; plasma, read-out: plasma half-life (converted)) was 31.4 h and the Cmax ([1]; spinal cord, read-out: spinal cord Cmax) was 630 ng/mL. For the same compound, the half-life ([1]; spinal cord, read-out: spinal cord half-life (converted)) was 89.2 h, the “severity and duration of experimental autoimmune neuritis” value [2] was “reduced the severity and duration” and the paraparesis ([2]; if administrated with immunization) was “suppress paraparesis”. The “lymphocyte count, CD11b” value ([3]; load 2.5 mg/kg oral then 1.8 mg/kg once weekly for 3 weeks) was “decreased lymphocyte count”, the “lymphocyte count, CD4” value ([3]; same regimen) was “decreased lymphocyte count” and the “lymphocyte count, CD28” value ([3]; same regimen) was “decreased lymphocyte count”. The “lymphocyte count, CD86” value ([3]; same regimen) was “decreased lymphocyte count”, the “lymphocyte count, CTLA34” value ([3]; same regimen) was “decreased lymphocyte count” and the “lymphocyte count, LY6G” value ([3]; same regimen) was “decreased lymphocyte count”. The “circulating CD45R positive cells in whole blood (in words)” value [4] was “fewer”, the circulating dendritic cells ([5]; Lan 2005, 2008) was “large increase” and the “effect on lymphocyte population” value ([5]; Tsunemi 2010 and Zemann 2006) was “lymphopenia”. For the same compound, the “regulatory T cells” value ([5]; Zhang et al. 2009) was “increase”, the “circulating CD4 positive cells in whole / peripheral blood (in words)” value ([6]; SOD1 animals, high and low dose groups) was “fewer; also recorded: transiently depletes” and the “CD4+ cells in whole blood” value ([6]; high dose (load 2.5 mg/kg, 1.8 mg/kg q7d)) was “approximately 5%”. For the same compound, the “CD4+ cells in whole blood” value ([6]; low dose (load 0.44 mg/kg, 0.32 mg/kg q7d)) was “approximately 5%”, the “reduction in CD4+ cells” value [6, 7] was “at least 50%” and the “reduction in CD4+ cells (fold)” value [6, 7] was “over two-fold”.
